Assay results published in ChEMBL document CHEMBL1201862, “PubChem BioAssay data set” (2004).
Several values for one entry are separate records, joined by “and”; a condition that tells them apart may be missing. Equal entries are not always repeated.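 48-hour exposure; five concentrations; linearly interpolated endpoints. Here, GI50 denotes the concentration required for 50% inhibition of growth.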 Activity calls are given as the source filed them. Rule as the data show it: active = GI50 up to about 1.1 µM and inactive = higher.

Key:
Assay in all cases: NCI tumour cell line growth inhibition, 48 h
[1] = tested on: 786-0
[2] = tested on: ACHN
[3] = tested on: CAKI-1
[4] = tested on: COLO 205
[5] = tested on: LOX IMVI
[6] = tested on: M14
[7] = tested on: MDA-MB-435
[8] = tested on: NCI-H23
[9] = tested on: NCI-H522
[10] = tested on: NCI/ADR-RES
[11] = tested on: PC-3
[12] = tested on: RPMI-8226
[13] = tested on: SF-539
[14] = tested on: SK-MEL-2
[15] = tested on: SN12C
[16] = tested on: T47D
[17] = tested on: TK-10
[18] = tested on: UO-31
[19] = tested on: RXF 393

Measured: GI50

N#CC(O)CCOCc1ccccc1 (stereo unspecified)
inactive: [1] 78.7 µM | [2] 39.4 µM | [3] 17.7 µM | [4] > 100 µM | [5] 46.9 µM | [6] > 100 µM | [7] > 100 µM | [8] > 100 µM | [9] 20.5 µM | [10] > 100 µM | [11] > 100 µM | [12] 41.7 µM | [13] 85.3 µM | [14] > 100 µM | [15] > 100 µM | [16] > 100 µM | [17] > 100 µM | [18] 78.7 µM

O=C(O)C(Br)C(Br)C(=O)O (stereo unspecified)
inactive: [1] > 100 µM | [2] > 100 µM | [3] > 100 µM | [4] > 100 µM | [5] > 100 µM | [6] > 100 µM | [7] > 100 µM | [8] > 100 µM | [9] > 100 µM | [10] > 100 µM | [11] > 100 µM | [12] > 100 µM | [19] > 100 µM | [13] > 100 µM | [14] > 100 µM | [15] > 100 µM | [17] > 100 µM | [18] > 100 µM

c1ccc(-c2ccc(-c3cc4ccccc4[nH]3)cc2)cc1
inactive: [1] > 100 µM | [2] > 100 µM | [3] 61.7 µM | [4] > 100 µM | [5] > 100 µM | [6] > 100 µM | [7] > 100 µM | [8] > 100 µM | [9] 60.3 µM | [10] > 100 µM | [11] > 100 µM | [12] > 100 µM | [13] > 100 µM | [14] > 100 µM | [15] > 100 µM | [16] > 100 µM | [17] > 100 µM | [18] > 100 µM

Cc1cccc(N/C(Sc2ccccc2)=C(/C(Cl)=C(Cl)Cl)[N+](=O)[O-])c1
inactive: [1] 16.9 µM | [2] 26.4 µM | [3] 19.9 µM | [4] 15.6 µM | [6] 18.8 µM | [7] 17.7 µM | [8] 20.1 µM | [10] 15.8 µM | [11] 27 µM | [12] 30.4 µM | [13] 16.4 µM | [14] 28.1 µM | [15] 15.3 µM | [16] 18 µM | [18] 14.7 µM

CC/C=C\C/C=C\C/C=C\CCCCCCCC(=O)OCC(O)CO (stereo unspecified)
inactive: [1] > 63.1 µM | [2] > 58.5 µM | [3] 38 µM | [4] 70.5 µM | [5] 39.9 µM | [6] > 61.7 µM | [8] > 74.5 µM | [9] 22 µM | [12] 43.4 µM | [19] > 100 µM | [13] > 100 µM | [14] 97.9 µM | [15] > 95.1 µM | [17] > 100 µM | [18] 16.4 µM

COC(=O)[C@@]1(Cc2ccc(OC(C)=O)cc2)Cc2cc3ccccc3n2N1
inactive: [1] 33.7 µM | [2] 58.1 µM | [3] > 100 µM | [4] 31.2 µM | [5] 38.6 µM | [6] 39.4 µM | [7] 43.6 µM | [8] 25.3 µM | [9] 24 µM | [10] 26.5 µM | [11] 30 µM | [12] 26.6 µM | [13] 58.7 µM | [14] 18.2 µM | [15] 29.6 µM | [16] 24.8 µM | [17] 33.7 µM | [18] 50.7 µM

CC(=O)OC1COC(n2c(N)c(C#N)c(C)c(C#N)c2=S)C(OC(C)=O)C1OC(C)=O (stereo unspecified)
inactive: [1] > 100 µM | [2] 59.6 µM | [3] > 100 µM | [5] > 100 µM | [6] > 100 µM | [7] > 100 µM | [8] > 100 µM | [9] > 100 µM | [10] > 100 µM | [11] 76.7 µM | [12] > 100 µM | [13] > 100 µM | [15] > 100 µM | [16] 55.3 µM and 58.3 µM | [17] > 100 µM | [18] > 100 µM

CC1(C)OC[C@@H](O)[C@H](Br)CO1
inactive: [1] > 100 µM | [2] > 100 µM | [3] > 100 µM | [4] > 100 µM | [5] > 100 µM | [6] > 100 µM | [7] > 100 µM | [8] > 100 µM | [11] > 100 µM | [12] 67.3 µM | [19] > 100 µM | [13] > 100 µM | [14] > 100 µM | [15] > 100 µM | [16] > 100 µM | [17] > 100 µM | [18] > 100 µM

CN(C(=O)C1=CCCCCC1)c1ccccc1I
inactive: [1] 27.8 µM | [2] 59.6 µM | [3] 64.4 µM | [4] 15.8 µM | [5] 28.9 µM | [6] 31.6 µM | [7] 40.2 µM | [8] 38.2 µM | [10] 25.6 µM | [11] 35 µM | [12] 35.5 µM | [19] > 100 µM | [14] 32.4 µM | [15] 49.1 µM | [16] 23.7 µM | [18] 41.4 µM

CONC(C)=O
inactive: [1] > 100 µM | [2] > 100 µM | [3] > 100 µM | [4] > 100 µM | [5] > 100 µM | [6] > 100 µM | [7] > 100 µM | [8] > 100 µM | [9] > 100 µM | [10] > 100 µM | [11] > 100 µM | [12] > 100 µM | [13] > 100 µM | [14] > 100 µM | [15] > 100 µM | [16] > 100 µM | [17] > 100 µM | [18] > 100 µM

CN(NC(=O)/C(=C\c1ccco1)NC(=O)c1ccccc1)c1cn[nH]c(=O)c1Cl
inactive: [1] 41.3 µM | [2] > 100 µM | [3] > 100 µM | [4] > 100 µM | [5] 23.2 µM | [6] 66.2 µM | [7] > 100 µM | [8] > 100 µM | [9] 28.1 µM | [10] 50.2 µM | [11] > 100 µM | [12] 21.1 µM | [19] > 100 µM | [13] 24.9 µM | [14] 80.5 µM | [15] 53.2 µM | [17] > 100 µM | [18] > 100 µM

CCCCCCCCCCCCCCCCCc1nc(C#N)c(N)o1
inactive: [1] 23.3 µM | [2] 96.6 µM | [3] 19.9 µM | [5] 54.3 µM | [6] 98.6 µM | [7] > 100 µM | [11] 24.4 µM | [12] 5.27 µM | [14] > 100 µM | [15] 61 µM | [17] > 100 µM

O=C(O/N=C1/CCC/C1=C\c1ccccc1)c1ccccc1
inactive: [1] > 100 µM | [2] > 100 µM | [3] > 100 µM | [4] > 100 µM | [5] 61.8 µM | [6] > 100 µM | [8] > 100 µM | [9] 53 µM | [12] 50.5 µM | [19] > 100 µM | [13] > 100 µM | [14] > 100 µM | [15] > 100 µM | [17] > 100 µM

COc1ccccc1-c1nc(O)c2ccccc2n1
inactive: [1] > 100 µM | [2] > 100 µM | [3] > 100 µM | [4] > 100 µM | [6] > 100 µM | [7] > 100 µM | [8] > 100 µM | [10] > 100 µM | [11] > 100 µM | [12] > 100 µM | [19] > 100 µM | [14] > 100 µM | [15] 56 µM | [16] 49.9 µM | [18] > 100 µM

Cc1cc(NS(=O)(=O)c2ccc(Nc3c4ccccc4nc4c(C(=O)NCCO)cccc34)cc2)no1
inactive: [1] 30.8 µM | [2] 30.2 µM | [3] 26.1 µM | [4] 32.9 µM | [5] 27.6 µM | [6] 29 µM | [7] 24.7 µM | [8] 39.2 µM | [9] 11.4 µM | [10] > 100 µM | [11] 39.2 µM | [12] 19.4 µM | [14] 22.2 µM | [15] 32.7 µM | [16] 19.7 µM | [17] 35.6 µM | [18] 25.2 µM

CCCC(=O)Oc1ccc2c(C)cc(=O)oc2c1OC(=O)CCC
inactive: [1] 73.3 µM | [2] 49.5 µM | [4] 86.1 µM | [5] 40.8 µM | [6] 48.6 µM | [7] 59.6 µM | [8] 48.8 µM | [10] 33.2 µM | [11] 59.3 µM | [12] 26.4 µM | [13] > 100 µM | [14] > 100 µM | [15] 76.6 µM | [17] 50.4 µM | [18] 60.1 µM

Clc1ccc(C2=CCN3CC=C(c4ccc(Cl)cc4)C23)cc1
inactive: [1] 11.6 µM | [2] 13.7 µM | [3] 14.3 µM | [4] 2.7 µM | [5] 8.34 µM | [6] 7.28 µM | [7] 10.7 µM | [8] 12 µM | [9] 10.2 µM | [10] 12.2 µM | [12] 4.66 µM | [13] 15.9 µM | [14] 15.5 µM | [15] 8.71 µM | [16] 12.7 µM | [17] 14 µM | [18] 6.81 µM
